Test results from patent publication US20260176253A1 (priority 2021, published 2026).

Columns and labels:
5HT2A sensor [1] = type: cell-based
5HT2A sensor [2] = type: cell-based; remark: listed apart in the source
5-HT2A [3] = target: T1, 5-HT2A (Homo sapiens, UniProt P28223); assay: Serotonin 5-HT2A in vitro cellular IPOne agonism assay (HTRF); type: cell-based; parameters: host or cells: CHO-K1; conditions: CHO-K1 cells, 60 min
Experimental: (§1) Serotonin 5-HT2AIn Vitro Cellular IPOne Agonism Assay. The 5-HT2AIPOne HTRF assay was performed at Epics Therapeutics S. A. (Belgium, FAST-0505I) using conventional methods. Briefly, CHO—K1 cells expressing human recombinant 5-HT2A receptor grown to mid-log phase in culture media without antibiotics were detached with PBS-EDTA, centrifuged, and resuspended in medium without antibiotics buffer. 20,000 cells were distributed in a 96 well plate and incubated overnight at 37° C. with 5% Co2.
For agonist testing, the medium was removed and 20 μl of assay buffer plus 20 μl of test compound or reference agonist were added in each well. The plate was incubated for 60 min. at 37° C. with 5% CO2.
(§2) After addition of the lysis buffer containing IP1-d2 and anti-IP1 cryptate detection reagents, plates were incubated 1-hour at room temperature, and fluorescence ratios were measured according to the manufacturer specification, with the HTRF kit.

rat cortical neurons = assay: Neurite outgrowth in primary neuronal cultures assay; type: cell-based; parameters: key: A: Statistically significant mean increase as a percent of DMSO control at 10 μM or less; B: No statistically significant mean increase as a percent of DMSO control at 10 μM or less; conditions: 72h, vs DMSO control, 10 μM or less
Description: Neurite Outgrowth Assay. Neurite Outgrowth in Primary Neuronal Cultures Assay. Changes in the pattern of neurite outgrowth have been implicated in psychiatric and neurodegenerative disorders as well as traumatic injuries. The discovery of new compounds that can positively affect neuritogenesis are important for developing new therapeutics for neurological diseases. Measurement of neurite outgrowth of rat cortical neurons using an automated image-based assay was used to determine the neuroplastic effects of the compounds of the present disclosure. The neurite outgrowth assay was performed at Neurofit SAS (France) as described below.
Pregnant Wistar rats (Janvier; France) were used for the study. They were delivered 6 days before their use. Upon arrival at Neurofit animal facility, they were housed one per cage and maintained in a room with controlled temperature (21-22° C.) and a reversed light-dark cycle (12 h/12h; lights on: 17:30-05:30; lights off: 05:30-17:30) with food and water available ad libitum.
Female Wistar rats of 17 days gestation were killed by cervical dislocation and the fetuses were removed from the uterus. Their brains were placed in ice-cold medium of Leibovitz (L15, Gibco, Fisher bioblock, France). Cortices were dissected and meninges were carefully removed. The cortical neurons were dissociated by trypsinization for 30 min at 37° C. (trypsin-EDTA, Gibco) in presence of 0.1 mg/ml DNAse I (Roche, France). The reaction was stopped by addition of Dulbecco's Modified Eagle Medium (DMEM; Gibco) with 10% of fetal bovine serum (FBS; Gibco). The suspension was triturated with a 10-ml pipette and using a needle syringe 21G and centrifuged at 350×g for 10 min at room temperature. The pellet of dissociated cells was resuspended in a medium consisting of Neurobasal (Gibco) supplemented with 2% B27 supplement (Gibco), 0.5 mM L-Glutamine (Gibco), an antibiotic-antimicotic mixture. Viable cells were counted in a Neubauer cytometer using the trypan blue exclusion test (Sigma). Cells were seeded at a density of 10000 cells per well in 96-well plate (Costar) precoated with poly-L-lysine. Test compound at different concentrations were added to the cultures. Donepezil (positive control) was tested at 250 nM.
After 72h (3 days) of plating, cultures were fixed with paraformaldehyde in PBS (4%, Sigma) for 30 min at 4° C. Then, cells were successively permeabilized with 0.1% Triton X100 for 30 min, saturated with PBS containing 3% of BSA and were incubated 1 h with anti-beta III tubulin antibody (Sigma) at 1/10 000 in PBS containing 0.5% of BSA. Cells were washed three times with PBS containing 0.5% of BSA, and they were incubated 1 h with goat anti-mouse antibody coupled with AF488 (Invitrogen A11001) diluted at 1/1000 in PBS containing 0.5% of BSA. Finally, nuclei were staining with DAPI 1 mg/ml at 1/1000 in PBS containing 0.5% of BSA. After rinsing with PBS, the plate was filmed and neurite networks were examined and analyzed using High-Content Screening (CellInsight, Thermo Scientific). The average number of neurites per neuron and the average total length of neurites per neuron were the main parameters analyzed. Analysis of data was performed using analysis of variance (ANOVA). The Fisher's Protected Least Significant Difference test was used for multiple comparisons. A p value ≤0.05 was considered significant. The software used is StatView 5.0 from SAS Institut.

5-HT2A [4] = target: T1, 5-HT2A; assay: Serotonin 5-HT2A in vitro radioligand binding competition assay ([3H]-DOI); parameters: purchased Epics Therapeutics S. A. (Belgium), contract assay FAST-0505B; host or cells: membrane extracts; conditions: [3H]-DOI competition, membrane extracts; read-out: 5HT2A R[…] ACTIVITY
Experimental: Serotonin 5-HT2AIn Vitro Radioligand Binding Competition Assay. The 5-HT2A radioligand binding competition assay was performed at Epics Therapeutics S. A. (Belgium, FAST-0505B) using conventional methods. Briefly, competition binding is performed in duplicate in the wells of a 96 well plate (Master Block, Greiner, 786201) containing binding buffer (optimized for each receptor), membrane extracts (amount of protein/well optimized for each receptor), radiotracer [3H]-DOI (final concentration optimized for each receptor) and test compound. Nonspecific binding was determined by co-incubation with 200-fold excess of cold competitor. The samples were incubated in a final volume of 0.1 ml at a temperature and for a duration optimized for each receptor and then filtered over filter plates. Filters were washed six times with 0.5 ml of ice-cold washing buffer (optimized for each receptor) and 50 µl of Microscint 20 (Packard) were added in each well. The plates were incubated 15 min on an orbital shaker and then counted with a TopCount™ for 1 min/well.

5-HT2A [5] = target: T1, 5-HT2A; assay: Serotonin 5-HT2A in vitro cellular IPOne antagonism assay (HTRF); type: cell-based; parameters: host or cells: CHO-K1; conditions: CHO-K1 cells, reference agonist a-Me-5HT
Experimental: as §1, with “Antagonism” for “Agonism”, “FAST-0505I) in antagonism mode” for “FAST-0505I)”
For antagonist testing, a reference agonist a-Me-5HT was added and fluorescence signal monitored for several minutes, followed by addition of 20 μl of assay buffer plus 20 μl of test compound or reference antagonist ketanserin, in each well. The plate was incubated for 60 min. at 37° C. with 5% CO2.
as §2

T1 sequence (P28223 whole entry): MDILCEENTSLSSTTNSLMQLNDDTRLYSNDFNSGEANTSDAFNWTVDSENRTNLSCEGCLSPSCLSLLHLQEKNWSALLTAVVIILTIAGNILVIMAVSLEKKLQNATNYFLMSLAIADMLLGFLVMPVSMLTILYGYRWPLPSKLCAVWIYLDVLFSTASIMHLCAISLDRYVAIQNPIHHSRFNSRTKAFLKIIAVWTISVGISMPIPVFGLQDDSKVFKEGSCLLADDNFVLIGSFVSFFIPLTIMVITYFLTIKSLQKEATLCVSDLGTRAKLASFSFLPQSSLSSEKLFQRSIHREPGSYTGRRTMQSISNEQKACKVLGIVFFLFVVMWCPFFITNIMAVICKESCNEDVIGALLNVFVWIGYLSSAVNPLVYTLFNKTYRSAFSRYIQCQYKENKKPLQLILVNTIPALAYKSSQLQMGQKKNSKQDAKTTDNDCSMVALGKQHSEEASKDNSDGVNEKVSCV

## COc1cc(CC(C)N)c(OC)cc1I (stereo not shown) [DOI]
5HT2A sensor [1]
  activation of the 5HT2A sensor assay in agonist mode: activate the 5HT2A sensor assay in agonist mode

## O=C(c1ccc(F)cc1)C1CCN(CCn2c(=O)[nH]c3ccccc3c2=O)CC1 [Ketanserin]
5HT2A sensor [2]
  competition with 5-HT in the 5HT2A sensor assay in antagonist mode: can compete with 5HT binding to 5HT2A
5HT2A sensor [1]
  activation of the 5HT2A sensor assay in agonist mode: do not activate the 5HT2A sensor assay in agonist mode

## COc1ccc2c3c([nH]c2c1)CCN1CCC[C@@H]1C3 [Compound 24, (R)-9-methoxy-1,2,3,5,6,7,12,12a-octahydropyrrolo[1′,2′:1,7]azepino[4,5-b]indole]
5-HT2A [3]
  EC50: > 10000 nM
Rat cortical neurons
  INCREASE IN NEURITE BRANCHING: A
  INCREASE IN NEURITE LENGTH: A
  INCREASE IN NEURITE NUMBER: A
5-HT2A [4]
  IC50: 1000 to 10000 nM
5-HT2A [5]
  IC50: 101 to 1000 nM

## c1ccc2c3c([nH]c2c1)C[C@H]1CCCN1CC3 [Compound 20, (R)-1,2,3,5,6,11,12,12a-octahydropyrrolo[1′,2′:1,2]azepino[4,5-b]indole]
5-HT2A [3]
  EC50: 101 to 1000 nM
Rat cortical neurons
  INCREASE IN NEURITE BRANCHING: A
  INCREASE IN NEURITE LENGTH: A
  INCREASE IN NEURITE NUMBER: A
5-HT2A [4]
  IC50: 101 to 1000 nM
5-HT2A [5]
  IC50: 1000 to 10000 nM

## CCN(CC)C(=O)[C@@H]1C=C2c3cccc4[nH]c(Br)c(c34)C[C@H]2N(C)C1 [BOL148]
5HT2A sensor [2]
  competition with 5-HT in the 5HT2A sensor assay in antagonist mode: can compete with 5HT binding to 5HT2A
5HT2A sensor [1]
  activation of the 5HT2A sensor assay in agonist mode: do not activate the 5HT2A sensor assay in agonist mode

## CCN(CC)C(=O)[C@@H]1C=C2c3cccc4[nH]cc(c34)C[C@H]2N(C)C1 [LSD]
5HT2A sensor [1]
  activation of the 5HT2A sensor assay in agonist mode: activate the 5HT2A sensor assay in agonist mode

## CN(C)CCc1c[nH]c2ccccc12 [DMT, N,N-dimethyltryptamine]
5HT2A sensor [1]
  activation of the 5HT2A sensor assay in agonist mode: activate the 5HT2A sensor assay in agonist mode

## CCN(CC)CCc1c[nH]c2cc(F)ccc12 [Compound 6-F-DET]
5HT2A sensor [2]
  competition with 5-HT in the 5HT2A sensor assay in antagonist mode: can compete with 5HT binding to 5HT2A
5HT2A sensor [1]
  activation of the 5HT2A sensor assay in agonist mode: do not activate the 5HT2A sensor assay in agonist mode

## COc1cccc2[nH]c3c(c12)C[C@@H]1CCCN1CC3 [Compound 27, (S)-11-methoxy-1,2,3,5,6,7,12,12a-octahydropyrrolo[1′,2′:1,7]azepino[4,5-b]indole]
5-HT2A [3]
  EC50: 10 to 100 nM
Rat cortical neurons
  INCREASE IN NEURITE BRANCHING: A
  INCREASE IN NEURITE LENGTH: A
  INCREASE IN NEURITE NUMBER: A
5-HT2A [4]
  IC50: 10 to 100 nM
5-HT2A [5]
  IC50: 10 to 100 nM

## c1ccc2c3c([nH]c2c1)CC1CCCN1CC3 (stereo not shown) [Compound 4, 1,2,3,5,6,11,12,12a-octahydropyrrolo[1′,2′;1,2]azepino[4,5-b]indole]
5-HT2A [3]
  EC50: 101 to 1000 nM
Rat cortical neurons
  INCREASE IN NEURITE BRANCHING: A
  INCREASE IN NEURITE LENGTH: A
  INCREASE IN NEURITE NUMBER: A
5-HT2A [4]
  IC50: 101 to 1000 nM
5-HT2A [5]
  IC50: 101 to 1000 nM

## COc1ccc2c3c([nH]c2c1)C[C@@H]1CCCN1CC3 [Compound 17, (S)-9-methoxy-1,2,3,5,6,11,12,12a-octahydropyrrolo[1′,2′:1,2]azepino[4,5-b]indole]
5-HT2A [3]
  EC50: > 10000 nM
Rat cortical neurons
  INCREASE IN NEURITE BRANCHING: A
  INCREASE IN NEURITE LENGTH: A
  INCREASE IN NEURITE NUMBER: A
5-HT2A [4]
  IC50: > 10000 nM
5-HT2A [5]
  IC50: > 10000 nM

## Cn1c2c(c3ccccc31)CC1CCCN1CC2 (stereo not shown) [Compound 6, 7-methyl-1,2,3,5,6,7,12,12a-octahydropyrrolo[1′,2′:1,7]azepino[4,5-b]indole]
5-HT2A [3]
  EC50: > 10000 nM
Rat cortical neurons
  INCREASE IN NEURITE BRANCHING: B
  INCREASE IN NEURITE LENGTH: A
  INCREASE IN NEURITE NUMBER: B
5-HT2A [4]
  IC50: 101 to 1000 nM
5-HT2A [5]
  IC50: 101 to 1000 nM

## Cn1c2c(c3ccccc31)CCN1CCCC1C2 (stereo not shown) [Compound 3, 11-methyl-1,2,3,5,6,11,12,12a-octahydropyrrolo[1′,2′:1,2]azepino[4,5-b]indole]
5-HT2A [3]
  EC50: 1000 to 10000 nM
Rat cortical neurons
  INCREASE IN NEURITE BRANCHING: B
  INCREASE IN NEURITE LENGTH: A
  INCREASE IN NEURITE NUMBER: B
5-HT2A [4]
  IC50: 101 to 1000 nM
5-HT2A [5]
  IC50: 101 to 1000 nM

## c1ccc2c3c([nH]c2c1)CCN1CCC[C@@H]1C3 [Compound 22, (R)-1,2,3,5,6,7,12,12a-octahydropyrrolo[1′,2′:1,7]azepino[4,5-b]indole]
5-HT2A [3]
  EC50: 101 to 1000 nM
Rat cortical neurons
  INCREASE IN NEURITE BRANCHING: A
  INCREASE IN NEURITE LENGTH: A
  INCREASE IN NEURITE NUMBER: A
5-HT2A [4]
  IC50: 1000 to 10000 nM
5-HT2A [5]
  IC50: 101 to 1000 nM

## COc1ccc2c3c([nH]c2c1)CCN1CCC[C@H]1C3 [Compound 25, (S)-9-methoxy-1,2,3,5,6,7,12,12a-octahydropyrrolo[1′,2′:1,7]azepino[4,5-b]indole]
5-HT2A [3]
  EC50: > 10000 nM
Rat cortical neurons
  INCREASE IN NEURITE BRANCHING: A
  INCREASE IN NEURITE LENGTH: A
  INCREASE IN NEURITE NUMBER: A
5-HT2A [4]
  IC50: > 10000 nM
5-HT2A [5]
  IC50: 101 to 1000 nM

## CN[C@H](C)Cc1ccc2c(c1)OCO2 [L-MDMA]
5HT2A sensor [1]
  activation of the 5HT2A sensor assay in agonist mode: do not activate the 5HT2A sensor assay in agonist mode

## FC(F)(F)Oc1ccc2c3c([nH]c2c1)CC1CCCN1CC3 (stereo not shown) [Compound 13, 9-(trifluoromethoxy)-1,2,3,5,6,11,12,12a-octahydropyrrolo[1′,2′;1,2]azepino[4,5-b]indole]
5-HT2A [3]
  EC50: > 10000 nM
Rat cortical neurons
  INCREASE IN NEURITE BRANCHING: B
  INCREASE IN NEURITE LENGTH: A
  INCREASE IN NEURITE NUMBER: B
5-HT2A [4]
  IC50: 1000 to 10000 nM
5-HT2A [5]
  IC50: 101 to 1000 nM
